Target: T1, human HPK1 protein (Homo sapiens, UniProt Q92918)
T1 construct: recombinant human HPK1 protein (a.a. 1-346) was expressed in Sf9 insect cells; GST (N); purchased Signalchem M23-11G; host or cells: Sf9 insect cells (baculovirus)
T1 sequence (Q92918 1-346): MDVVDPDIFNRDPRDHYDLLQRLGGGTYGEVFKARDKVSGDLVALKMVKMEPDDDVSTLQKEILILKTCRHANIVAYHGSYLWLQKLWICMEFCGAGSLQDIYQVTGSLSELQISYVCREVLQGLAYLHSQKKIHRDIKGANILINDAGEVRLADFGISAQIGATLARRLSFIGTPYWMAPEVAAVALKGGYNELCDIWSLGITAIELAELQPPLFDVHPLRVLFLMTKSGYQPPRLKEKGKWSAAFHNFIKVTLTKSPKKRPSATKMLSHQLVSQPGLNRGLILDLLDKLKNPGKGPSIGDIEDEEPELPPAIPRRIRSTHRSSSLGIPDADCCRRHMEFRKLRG
Test: Human HPK1 protein TR-FRET assay
Assay type: biochemical
Settings: 1 mM ATP, Table 19
Protocol: Exemplary compounds from the above Examples were tested for ability to inhibit HPK1 using a human HPK1 protein TR-FRET Assay. Assay procedures and results are described below.
N-terminal GST-tagged recombinant human HPK1 protein (a.a. 1-346) was expressed in Sf9 insect cells using a baculovirus expression system (Signalchem Catalog #M23-11G). The enzyme was diluted in assay buffer (50 mM Tris pH 7.5, 1 mM MgCl2, 0.01% NP-40 and 2 mM DTT) to obtain a 4× working solution at a concentration of 40 nM HPK1 enzyme.
A 5 μM stock of ULight™ CREBtide peptide RRPSYRK (Perkin Elmer Product No. TRF0107-M) derived from human cAMP Response Element Binding (CREB) Protein was prepared in storage buffer containing 50 mM Tris-HCl (pH 7.4), 0.9% NaCl, 0.1% BSA, and 0.05% sodium azide. The CREBtide substrate was diluted in assay buffer (50 mM Tris pH 7.5, 1 mM MgCl2, 0.01% NP-40, 2 mM DTT) with 2 mM ATP to a final concentration of 200 nM CREBtide peptide to obtain a 2× working solution of substrate. HPK1 enzyme and CREBtide substrate solutions were mixed with compounds diluted in DMSO to obtain a final concentration of enzyme, substrate, and ATP of 10 nM, 100 nM, and 1 mM, respectively, in 1% DMSO. The final assay mixture was incubated at room temperature for 60 minutes.
A solution of Europium-labeled anti-phospho-CREB (Ser133) antibody (Perkin Elmer Product No. TRF0200-M), EDTA and LANCE™ Detection Buffer (Perkin Elmer Product No. CR97-100) were added to each well to obtain a final concentration of 2 nM antibody, 10 mM EDTA and 1× LANCE buffer. The resulting mixture was incubated at room temperature for 60 minutes.
The fluorescence resonance energy transfer (FRET) signal was measured on an Envision plate reader: Excitation filter=340 nm, APC emission=665 nm, Europium emission=615 nm, dichroic mirror=D400/D630, delay time=100 μs, and integration time=200 μs. The half maximal inhibitory concentration (IC50) values for compounds were calculated from the quotient of the fluorescence signal at 665 nm divided by the fluorescence signal at 615 nm. The quotient of the fluorescence signals in the presence of DMSO without compound is set as 100 percent enzymatic activity. A 4-parameter logistic model in PRISM (GraphPad) was used to calculate the IC50 for a given compound.

SMILES	IC50 [nM]
CCN1CCN(Cc2ccc(NC(=O)N3CCc4ccc(Oc5ccnc6[nH]ncc56)cc4C3)cc2C(F)(F)F)CC1 [II-4]	< 500
CCN1CCN(Cc2ccc(NC(=O)N3CCc4ccc(Oc5ncnc6[nH]ncc56)cc4C3)cc2C(F)(F)F)CC1 [II-5]	< 500
CCN1CCN(Cc2ccc(NC(=O)N3CCc4ccc(Oc5ncnc6[nH]cnc56)cc4C3)cc2C(F)(F)F)CC1 [II-6]	< 500
CCN1CCN(Cc2ccc(NC(=O)N3CCc4ccc(Oc5ncnn6cc(C)cc56)cc4C3)cc2C(F)(F)F)CC1 [II-7]	< 500
CCN1CCN(Cc2ccc(NC(=O)N3CCc4ccc(Oc5ncnn6cc(F)cc56)cc4C3)cc2C(F)(F)F)CC1 [II-8]	< 500
CCN1CCN(Cc2ccc(NC(=O)N3CCc4ccc(Oc5cc(NC(C)=O)ncn5)cc4C3)cc2C(F)(F)F)CC1 [II-9]	< 500
CCN1CCN(Cc2ccc(NC(=O)N3CCc4ccc(Oc5cc(NC(=O)C6CC6)ncn5)cc4C3)cc2C(F)(F)F)CC1 [II-10]	< 500
CCN1CCN(Cc2ccc(NC(=O)N3CCc4ccc(Oc5ccnc6c5CCC(=O)N6)cc4C3)cc2C(F)(F)F)CC1 [II-11]	< 500
CCN1CCN(Cc2ccc(NC(=O)N3CCc4ccc(Oc5ccnc6[nH]c(=O)ccc56)cc4C3)cc2C(F)(F)F)CC1 [II-12]	< 500
CCN1CCN(Cc2ccc(NC(=O)N3CCc4ccc(Oc5ccnc(NC)c5)cc4C3)cc2C(F)(F)F)CC1 [II-13]	< 500
CCN1CCN(Cc2ccc(NC(=O)N3CCc4ccc(Oc5ccnc(NC(C)=O)c5)cc4C3)cc2C(F)(F)F)CC1 [II-14]	< 500
CCN1CCN(Cc2ccc(NC(=O)N3CCc4ccc(Oc5ccnc(NC(=O)C6CC6)c5)cc4C3)cc2C(F)(F)F)CC1 [II-15]	< 500
CN1CCC(Oc2ccc(NC(=O)N3CCc4ccc(Oc5ncnn6cccc56)cc4C3)cc2C(F)(F)F)CC1 [II-16]	500 to 5000
CCN1CCN(Cc2ccc(NC(=O)N3CCc4ccc(Oc5cc(Nc6ncc[nH]6)ncn5)cc4C3)cc2C(F)(F)F)CC1 [II-17]	< 500
CCN1CCN(Cc2ccc(NC(=O)N3CCc4ccc(Oc5ccnn6cccc56)cc4C3)cc2C(F)(F)F)CC1 [II-19]	< 500
CCN1CCN(Cc2ccc(NC(=O)N3CCc4ccc(Oc5ccnc6[nH]cnc56)cc4C3)cc2C(F)(F)F)CC1 [II-20]	< 500
CCN1CCN(Cc2ccc(NC(=O)N3CCc4ccc(Oc5cn[nH]c5)cc4C3)cc2C(F)(F)F)CC1 [II-21]	500 to 5000
CCN1CCN(Cc2ccc(NC(=O)N3CCc4ccc(Oc5ccnn6cc(F)cc56)cc4C3)cc2C(F)(F)F)CC1 [II-22]	< 500
CCN1CCN(Cc2ccc(NC(=O)N3CCc4ccc(Oc5ccnn6cc(Cl)cc56)cc4C3)cc2C(F)(F)F)CC1 [II-23]	< 500
CCN1CCN(Cc2ccc(NC(=O)N3CCc4ccc(Oc5ccnn6cc(Br)cc56)cc4C3)cc2C(F)(F)F)CC1 [II-24]	< 500
CCN1CCN(Cc2ccc(NC(=O)N3CCc4ccc(Oc5ccnn6cc(-c7c[nH]cn7)cc56)cc4C3)cc2C(F)(F)F)CC1 [II-25]	< 500
CCN1CCN(Cc2ccc(NC(=O)N3CCc4ccc(Oc5ccnn6cc(-c7cnn(C)c7)cc56)cc4C3)cc2C(F)(F)F)CC1 [II-26]	< 500
CCN1CCN(Cc2ccc(NC(=O)N3CCc4cc(C)c(Oc5ccnc6[nH]ccc56)cc4C3)cc2C(F)(F)F)CC1 [III-1]	< 500
CCN1CCN(Cc2ccc(NC(=O)N3CCc4ccc(Oc5ccnc6[nH]ccc56)c(C)c4C3)cc2C(F)(F)F)CC1 [III-2]	< 500
CCN1CCN(Cc2ccc(NC(=O)N3CCc4ccc(Oc5ccnc6[nH]ccc56)c(F)c4C3)cc2C(F)(F)F)CC1 [III-3]	< 500
CCN1CCN(Cc2ccc(NC(=O)N3CCc4ccc(Oc5ccnc6[nH]c(C)cc56)cc4C3)cc2C(F)(F)F)CC1 [III-4]	< 500
CCN1CCN(Cc2ccc(NC(=O)N3CCc4ccc(Oc5ccnc6c5CCN6)cc4C3)cc2C(F)(F)F)CC1 [III-5]	< 500

SMILES	IC50 [nM]
CCN1CCN(Cc2ccc(NC(=O)N3CCc4ccc(Oc5c(C)cnc6[nH]ccc56)cc4C3)cc2C(F)(F)F)CC1 [III-6]	500 to 5000
CCN1CCN(Cc2ccc(NC(=O)N3CCc4ccc(Oc5c(Cl)cnc6[nH]ccc56)cc4C3)cc2C(F)(F)F)CC1 [III-7]	500 to 5000
CCN1CCN(Cc2ccc(NC(=O)N3CCc4ccc(Oc5c(F)cnc6[nH]ccc56)cc4C3)cc2C(F)(F)F)CC1 [III-8]	< 500
CCN1CCN(Cc2ccc(NC(=O)N3CCc4c(C)cc(Oc5ccnc6[nH]ccc56)cc4C3)cc2C(F)(F)F)CC1 [III-9]	< 500
CN1CCC(Oc2ccc(NC(=O)N3CCc4ccc(Oc5ccnc6[nH]ccc56)cc4C3)cc2C(F)(F)F)CC1 [III-11]	< 500
CCN1CCN(Cc2ccc(NC(=O)N3CCc4ccc(Oc5cc(C)nc6[nH]ccc56)cc4C3)cc2C(F)(F)F)CC1 [III-12]	500 to 5000
CCN1CCN(Cc2ccc(NC(=O)N3CCc4ccc(Oc5ccnc6[nH]ccc56)cc4C3C)cc2C(F)(F)F)CC1 (stereo not drawn) [IV-1]	500 to 5000
CCN1CCN(Cc2ccc(NC(=O)N3Cc4cc(Oc5ccnc6[nH]ccc56)ccc4C(C)C3)cc2C(F)(F)F)CC1 (stereo not drawn) [IV-3]	< 500
CCN1CCN(Cc2ccc(NC(=O)N3CCc4c(C)cc(Oc5ccnc6[nH]ccc56)cc4C3C)cc2C(F)(F)F)CC1 (stereo not drawn) [IV-5]	500 to 5000
CCN1CCN(Cc2ccc(NC(=O)N3CCc4cc(F)c(Oc5ccnc6[nH]ccc56)cc4C3C)cc2C(F)(F)F)CC1 (stereo not drawn) [IV-7]	500 to 5000
C[C@H]1c2cc(Oc3ccnc4[nH]ccc34)ccc2CCN1C(=O)Nc1cc(C(F)(F)F)c(OC2CCN(C)CC2)cn1 [IV-9]	< 500
CCN1CCN(Cc2ccc(NC(=O)N3CCc4nc(C)c(Oc5ccnc6[nH]ccc56)cc4C3C)cc2C(F)(F)F)CC1 (stereo not drawn) [IV-10]	500 to 5000
CCN1CCN(Cc2ccc(NC(=O)N3CCc4c(C#N)cc(Oc5ccnc6[nH]ccc56)cc4C3C)cc2C(F)(F)F)CC1 (stereo not drawn) [IV-11]	500 to 5000
CCN1CCN(Cc2ccc(NC(=O)N3CCc4cc(C#N)c(Oc5ccnc6[nH]ccc56)cc4C3C)cc2C(F)(F)F)CC1 (stereo not drawn) [IV-12]	500 to 5000
CCN1CCN(Cc2ccc(NC(=O)N3CCc4cc(Br)c(Oc5ccnc6[nH]ccc56)cc4C3C)cc2C(F)(F)F)CC1 (stereo not drawn) [IV-13]	< 500
CCN1CCN(Cc2ccc(NC(=O)N3CCc4c(F)cc(Oc5ccnc6[nH]ccc56)cc4C3C)cc2C(F)(F)F)CC1 (stereo not drawn) [IV-14]	< 500
CCN1CCN(Cc2ccc(NC(=O)N3CCc4c(F)cc(Oc5ccnc6[nH]ccc56)cc4C3C)cc2C(F)(F)F)CC1 (stereo not drawn) [IV-15]	< 500
CCN1CCN(Cc2ccc(NC(=O)N3CCc4c(F)cc(Oc5ccnc6[nH]ccc56)cc4C3C)cc2C(F)(F)F)CC1 (stereo not drawn) [IV-16]	500 to 5000
CCN1CCN(Cc2ccc(NC(=O)N3Cc4cc(Oc5ccnc6[nH]c(C)cc56)ccc4C(C)C3)cc2C(F)(F)F)CC1 (stereo not drawn) [IV-17]	< 500
CCN1CCN(Cc2ccc(NC(=O)N3Cc4cc(Oc5ccnc6[nH]c(C)cc56)ccc4C(C)C3)cc2C(F)(F)F)CC1 (stereo not drawn) [IV-18]	< 500
CCN1CCN(Cc2ccc(NC(=O)N3Cc4cc(Oc5ccnc6[nH]c(C)cc56)ccc4C(C)C3)cc2C(F)(F)F)CC1 (stereo not drawn) [IV-19]	< 500
CCC1CN(C(=O)Nc2ccc(CN3CCN(CC)CC3)c(C(F)(F)F)c2)Cc2cc(Oc3ccnc4[nH]ccc34)ccc21 (stereo not drawn) [IV-20]	< 500
CCC1CN(C(=O)Nc2ccc(CN3CCN(CC)CC3)c(C(F)(F)F)c2)Cc2cc(Oc3ccnc4[nH]ccc34)ccc21 (stereo not drawn) [IV-21]	< 500
CCC1CN(C(=O)Nc2ccc(CN3CCN(CC)CC3)c(C(F)(F)F)c2)Cc2cc(Oc3ccnc4[nH]ccc34)ccc21 (stereo not drawn) [IV-22]	< 500
CCN1CCN(Cc2ccc(NC(=O)N3Cc4cc(Oc5ccnc6[nH]ccc56)ccc4C4(CC4)C3)cc2C(F)(F)F)CC1 [IV-23]	< 500
CCC1c2cc(Oc3ccnc4[nH]ccc34)ccc2CCN1C(=O)Nc1ccc(CN2CCN(CC)CC2)c(C(F)(F)F)c1 (stereo not drawn) [IV-24]	500 to 5000
CCN1CCN(Cc2ccc(NC(=O)N3CCc4cc(F)c(Oc5ccnc6[nH]c(C)cc56)cc4C3C)cc2C(F)(F)F)CC1 (stereo not drawn) [IV-26]	500 to 5000

Source: US20210139484A1, “DIHYDROISOQUINOLINE-2(1H)-CARBOXAMIDE AND RELATED COMPOUNDS AND THEIR USE IN TREATING MEDICAL CONDITIONS” (GOSSAMER BIO SERVICES, INC., priority 2018, published 2021)
